Earlier results in US20040024036A1, “Pharmaceutical composition for transdermal delivery of befloxatone” (priority 2000, published 2004).

Legend:
[1] = tested on: noradrenalin (NA) reuptake
[2] = tested on: serotonin (5-HT) reuptake
MAO-B = biological target: T1, MAO-B (Homo sapiens, UniProt P27338); settings: MAO-A versus MAO-B
T1 sequence (P27338 1-520): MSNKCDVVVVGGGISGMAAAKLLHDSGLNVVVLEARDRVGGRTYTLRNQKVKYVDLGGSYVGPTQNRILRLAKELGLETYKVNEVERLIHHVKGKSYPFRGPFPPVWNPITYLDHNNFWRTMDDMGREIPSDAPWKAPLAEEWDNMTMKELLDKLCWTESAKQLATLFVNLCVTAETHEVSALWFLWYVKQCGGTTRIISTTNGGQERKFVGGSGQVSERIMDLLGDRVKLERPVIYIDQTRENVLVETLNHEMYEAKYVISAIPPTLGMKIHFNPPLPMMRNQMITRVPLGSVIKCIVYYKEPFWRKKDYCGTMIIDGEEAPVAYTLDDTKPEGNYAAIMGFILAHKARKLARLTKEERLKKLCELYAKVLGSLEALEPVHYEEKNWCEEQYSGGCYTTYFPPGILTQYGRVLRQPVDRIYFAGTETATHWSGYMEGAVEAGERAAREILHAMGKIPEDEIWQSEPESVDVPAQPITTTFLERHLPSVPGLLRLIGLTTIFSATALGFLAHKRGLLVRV

MAO-A = biological target: T2, MAO-A (Homo sapiens, UniProt P21397); settings: reversible inhibitor
T2 sequence (P21397 1-527): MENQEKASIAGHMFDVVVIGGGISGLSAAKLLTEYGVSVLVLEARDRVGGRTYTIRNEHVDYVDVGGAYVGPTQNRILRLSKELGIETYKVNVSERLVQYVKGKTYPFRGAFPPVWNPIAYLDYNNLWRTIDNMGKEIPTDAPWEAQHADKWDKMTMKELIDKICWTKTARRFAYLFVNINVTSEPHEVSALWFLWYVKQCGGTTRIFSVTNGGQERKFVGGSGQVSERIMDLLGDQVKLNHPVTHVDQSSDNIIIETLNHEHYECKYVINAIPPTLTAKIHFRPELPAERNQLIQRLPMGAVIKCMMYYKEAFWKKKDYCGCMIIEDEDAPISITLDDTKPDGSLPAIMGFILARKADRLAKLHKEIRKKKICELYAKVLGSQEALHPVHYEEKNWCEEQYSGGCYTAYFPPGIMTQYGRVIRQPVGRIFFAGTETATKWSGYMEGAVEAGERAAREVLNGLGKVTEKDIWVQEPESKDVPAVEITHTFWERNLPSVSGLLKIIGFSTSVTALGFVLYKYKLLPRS

## COC[C@H]1CN(c2ccc(OCC[C@@H](O)C(F)(F)F)cc2)C(=O)O1 [befloxatone]
[1]
  effect on noradrenalin (NA) reuptake: does not affect
[2]
  effect on serotonin (5-HT) reuptake: does not affect
MAO-B
  selectivity toward the B isoform (MAO-B): very good selectivity
MAO-A
  affinity for the A isoform (MAO-A): very high affinity
Dopamine (DA) reuptake
  effect on dopamine (DA) reuptake: does not affect
